Measured values from patent publication US6399777B2, “Inclusion complexes of aryl-heterocyclic salts” (Pfizer Inc., priority 1996, dated 2002).
Structures can show the parent of a compound that is named as a salt.

Experiments:
[1] = Equilibrium solubility of ziprasidone salts in 40% (w/v) aqueous HPBCD, HPLC; assay type: physicochemical; conditions: 40% (w/v) HPBCD in water, stirred four days at ambient temperature; calculated as free base
From the text: Many different experimental protocols can be envisioned and implemented. […] HPBCD was purchased commercially from Wacker Chemie.

[2] = Solubility of ziprasidone salts in water; conditions: weight of ziprasidone calculated as the free base
[3] = Equilibrium solubility of ziprasidone salts in 40% (w/v) aqueous SBECD, HPLC; conditions: in 40% SBECD; from Table 1
Experimental: The following protocol illustrates the protocol employed for the instant invention using 40% aqueous cyclodextrin. The same protocol was employed for other aqueous cyclodextrin concentrations such as those used to generate FIG. 1.
A 40% (w/v) solution of cyclodextrin (SBECD or HPBCD) in water was prepared by adding 200 g of cyclodextrin to a 500 ml beaker containing approximately 250 ml of deionized water and a magnetic stir bar. The contents were stirred until dissolution of the cyclodextrin in the water was complete, usually a time of about one hour being sufficient. The solution was then transferred to a 500 ml volumetric flask and deionized water was added to the mark. 5 ml of the volumetric solution was pipetted into a 10 ml glass vial with a screw cap. […] The vial contents were stirred for four days at ambient temperature to allow a sufficient time for equilibrium to be established. […] The contents were filtered into a clean screw cap vial through a Millex-GS 0.2 μm filter and the drug concentration determined by an HPLC method.
Detection can be by UV absorption at a wavelength of 229 nm. Quantification can be effected facilely by comparison of HPLC peak height (or area) with the peak height (or area) taken from a standard plot of concentration vs. peak height (or area) for standards of known concentration. […]

SMILES: O=C1Cc2cc(CCN3CCN(c4nsc5ccccc45)CC3)c(Cl)cc2N1 [tartrate, Ziprasidone Tartrate]
- Solubility in 40% HPBCD [1]: 12.4 μgA/ml
- Solubility in water [2]: 180 μgA/ml

SMILES: O=C1Cc2cc(CCN3CCN(c4nsc5ccccc45)CC3)c(Cl)cc2N1 [besylate, ziprasidone]
- Solubility in water [2]: 80 μgA/ml

SMILES: O=C1Cc2cc(CCN3CCN(c4nsc5ccccc45)CC3)c(Cl)cc2N1 [mesylate, Ziprasidone Mesylate]
- Solubility in 40% HPBCD [1]: 17.3 μgA/ml
- Solubility in water [2]: 1000 μgA/ml
- Comparison of solubility among the salt candidates and cyclodextrin solutions tested [3]: highest solubility

SMILES: O=C1Cc2cc(CCN3CCN(c4nsc5ccccc45)CC3)c(Cl)cc2N1 [free base, ziprasidone, reference compound]
- Solubility in water [2]: 0.3 μgA/ml

SMILES: O=C1Cc2cc(CCN3CCN(c4nsc5ccccc45)CC3)c(Cl)cc2N1 [aspartate, ziprasidone]
- Solubility in 40% HPBCD [1]: 1.3 μgA/ml

SMILES: O=C1Cc2cc(CCN3CCN(c4nsc5ccccc45)CC3)c(Cl)cc2N1 [hydrochloride, ziprasidone]
- Solubility in 40% HPBCD [1]: 2.4 μgA/ml
- Solubility in water [2]: 80 μgA/ml

SMILES: O=C1Cc2cc(CCN3CCN(c4nsc5ccccc45)CC3)c(Cl)cc2N1 [esylate, Ziprasidone Esylate]
- Solubility in 40% HPBCD [1]: 13.7 μgA/ml
